Assay results taken from patent US10738028B2, “Spiro three-membered ring, spiro five-membered ring peptide deformylase inhibitor and use thereof in antibacteria and anti-tumor” (priority 2016, dated 2020).

Legend:
Type in all cases: cell-based
[1] = tested on: Escherichia coli (including ESBLs, non-ESBLs); assay: MIC, two-fold agar dilution (CLSI), clinical isolates
Procedure, shortened: (§1)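 MIC values come from two-fold agar dilution run per CLSI antimicrobial susceptibility testing procedure.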

[2] = tested on: methicillin-resistant Staphylococcus aureus (MRSA); assay: as above
Procedure, shortened: as §1

[3] = tested on: Enterococcus faecium (EFM); assay: as above
Procedure, shortened: as §1

[4] = tested on: Enterococcus faecalis (EFA); assay: as above
Procedure, shortened: as §1

[5] = tested on: methicillin-sensitive Staphylococcus aureus (MSSA); assay: as above
Procedure, shortened: as §1

[6] = tested on: methicillin-resistant Staphylococcus epidermidis (MRSE); assay: as above
Procedure, shortened: as §1

[7] = tested on: Moraxella catarrhalis (BCA); assay: as above
Procedure, shortened: as §1

[8] = tested on: Streptococcus pneoumoniae (SPN); assay: as above
Procedure, shortened: as §1

[9] = tested on: methicillin-sensitive Staphylococcus epidermidis (MSSE); assay: as above
Procedure, shortened: as §1

[10] = tested on: HCT-116 colorectal cancer cell line; assay: CCK-8 proliferation inhibition; details: Homo sapiens, HCT-116, 72 h, concentration of 30 μM; 72 hours; CCK-8; read-out: HCT116 inhibition rate/%
Procedure, shortened: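 Proliferation over 72 hours of compound treatment was measured with CCK-8 against a 1‰ DMSO control.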

Question: Which Anti-bacterial activity (MIC), strain ECO+ 15-1 ([1]; clinical isolate ECO+ 15-1) does the source give for `CCCC[C@H](CC(=O)NO)C(=O)N1CC2(CC2)C[C@H]1C(=O)Nc1ncc(C)s1` [Example 47, (S)-5-((R)-2-(2-(hydroxyamino)-2-oxoethyl)hexanoyl)-N-(5-methylthiazol-2-yl)-5-azaspiro[2.4]heptane-6-amide] here?
Answer: 32 µg/mL

Question: And the Anti-bacterial activity (MIC), strain ECO+ 15-2 ([1]; clinical isolate ECO+ 15-2)?
Answer: > 32 µg/mL

Question: And the Anti-bacterial activity (MIC), strain ECO+ 15-3 ([1]; clinical isolate ECO+ 15-3)?
Answer: > 32 µg/mL

Question: And the Anti-bacterial activity (MIC), strain ECO+ 15-4 ([1]; clinical isolate ECO+ 15-4)?
Answer: 0.5 µg/mL

Question: And the Anti-bacterial activity (MIC), strain ECO− 15-1 ([1]; clinical isolate ECO− 15-1)?
Answer: > 32 µg/mL

Question: And the Anti-bacterial activity (MIC), strain ECO− 15-2 ([1]; clinical isolate ECO− 15-2)?
Answer: > 32 µg/mL

Question: What about the Anti-bacterial activity (MIC), strain ECO− 15-3 ([1]; clinical isolate ECO− 15-3) of the same compound?
Answer: > 32 µg/mL

Question: What about the Anti-bacterial activity (MIC), strain ECO− 15-4 ([1]; clinical isolate ECO− 15-4) of the same compound?
Answer: > 32 µg/mL

Question: And the Anti-bacterial activity (MIC), strain MRSA 15-1 ([2]; clinical isolate MRSA 15-1)?
Answer: 0.25 µg/mL

Question: What about the Anti-bacterial activity (MIC), strain MRSA 15-2 ([2]; clinical isolate MRSA 15-2) of the same compound?
Answer: 0.5 µg/mL

Question: What about the Anti-bacterial activity (MIC), strain MRSA 15-3 ([2]; clinical isolate MRSA 15-3) of the same compound?
Answer: 0.25 µg/mL

Question: What about the Anti-bacterial activity (MIC), strain MRSA 15-4 ([2]; clinical isolate MRSA 15-4) of the same compound?
Answer: 0.5 µg/mL

Question: And the Anti-bacterial activity (MIC), strain EFM 15-1 ([3]; clinical isolate EFM 15-1)?
Answer: > 32 µg/mL

Question: What about the Anti-bacterial activity (MIC), strain EFM 15-2 ([3]; clinical isolate EFM 15-2) of the same compound?
Answer: > 32 µg/mL

Question: And the Anti-bacterial activity (MIC), strain EFM 15-3 ([3]; clinical isolate EFM 15-3)?
Answer: > 32 µg/mL

Question: What about the Anti-bacterial activity (MIC), strain EFM 15-4 ([3]; clinical isolate EFM 15-4) of the same compound?
Answer: > 32 µg/mL

Question: What about the Anti-bacterial activity (MIC), strain EFM 15-5 ([3]; clinical isolate EFM 15-5) of the same compound?
Answer: 0.25 µg/mL

Question: And the Anti-bacterial activity (MIC), strain EFM 15-6 ([3]; clinical isolate EFM 15-6)?
Answer: 1 µg/mL

Question: What about the Anti-bacterial activity (MIC), strain EFA 15-1 ([4]; clinical isolate EFA 15-1) of the same compound?
Answer: > 32 µg/mL

Question: And the Anti-bacterial activity (MIC), strain EFA 15-2 ([4]; clinical isolate EFA 15-2)?
Answer: > 32 µg/mL

Question: What about the Anti-bacterial activity (MIC), strain EFA 15-3 ([4]; clinical isolate EFA 15-3) of the same compound?
Answer: > 32 µg/mL

Question: What about the Anti-bacterial activity (MIC), strain EFA 15-4 ([4]; clinical isolate EFA 15-4) of the same compound?
Answer: > 32 µg/mL

Question: And the Anti-bacterial activity (MIC), strain EFA 15-5 ([4]; clinical isolate EFA 15-5)?
Answer: > 32 µg/mL

Question: What about the Anti-bacterial activity (MIC), strain EFA 15-6 ([4]; clinical isolate EFA 15-6) of the same compound?
Answer: > 32 µg/mL

Question: What about the Anti-bacterial activity (MIC), strain EFA 15-9 ([4]; clinical isolate EFA 15-9) of the same compound?
Answer: 4 µg/mL

Question: What about the Anti-bacterial activity (MIC), strain MSSA 15-3 ([5]; clinical isolate MSSA 15-3) of the same compound?
Answer: 0.5 µg/mL

Question: And the Anti-bacterial activity (MIC), strain MSSA 15-4 ([5]; clinical isolate MSSA 15-4)?
Answer: 0.5 µg/mL

Question: And the Anti-bacterial activity (MIC), strain MSSA 15-5 ([5]; clinical isolate MSSA 15-5)?
Answer: 0.5 µg/mL

Question: And the Anti-bacterial activity (MIC), strain MSSA 15-6 ([5]; clinical isolate MSSA 15-6)?
Answer: > 32 µg/mL

Question: What about the Anti-bacterial activity (MIC), strain MRSE 15-1 ([6]; clinical isolate MRSE 15-1) of the same compound?
Answer: 0.5 µg/mL

Question: What about the Anti-bacterial activity (MIC), strain MRSE 15-2 ([6]; clinical isolate MRSE 15-2) of the same compound?
Answer: 0.5 µg/mL

Question: What about the Anti-bacterial activity (MIC), strain MRSE 15-3 ([6]; clinical isolate MRSE 15-3) of the same compound?
Answer: 0.5 µg/mL

Question: And the Anti-bacterial activity (MIC), strain MRSE 15-7 ([6]; clinical isolate MRSE 15-7)?
Answer: 0.5 µg/mL

Question: What about the Anti-bacterial activity (MIC), strain BCA 14-1 ([7]; clinical isolate BCA 14-1) of the same compound?
Answer: 4 µg/mL

Question: And the Anti-bacterial activity (MIC), strain BCA 14-4 ([7]; clinical isolate BCA 14-4)?
Answer: 4 µg/mL

Question: What about the Anti-bacterial activity (MIC), strain BCA 14-5 ([7]; clinical isolate BCA 14-5) of the same compound?
Answer: 0.25 µg/mL

Question: What about the Anti-bacterial activity (MIC), strain BCA 14-6 ([7]; clinical isolate BCA 14-6) of the same compound?
Answer: 2 µg/mL

Question: And the Anti-bacterial activity (MIC), strain BCA 14-7 ([7]; clinical isolate BCA 14-7)?
Answer: 2 µg/mL

Question: What about the Anti-bacterial activity (MIC), strain BCA 14-8 ([7]; clinical isolate BCA 14-8) of the same compound?
Answer: 1 µg/mL

Question: And the Anti-bacterial activity (MIC), strain BCA 14-10 ([7]; clinical isolate BCA 14-10)?
Answer: 0.5 µg/mL

Question: And the Anti-bacterial activity (MIC), strain SPN 16-2 ([8]; clinical isolate SPN 16-2)?
Answer: 0.5 µg/mL

Question: And the Anti-bacterial activity (MIC), strain SPN 16-4 ([8]; clinical isolate SPN 16-4)?
Answer: 0.5 µg/mL

Question: And the Anti-bacterial activity (MIC), strain MSSE 15-3 ([9]; clinical isolate MSSE 15-3)?
Answer: 0.5 µg/mL

Question: What about the Anti-bacterial activity (MIC), strain MSSE 15-4 ([9]; clinical isolate MSSE 15-4) of the same compound?
Answer: 0.5 µg/mL

Question: What about the Anti-bacterial activity (MIC), strain MSSE 15-5 ([9]; clinical isolate MSSE 15-5) of the same compound?
Answer: 0.5 µg/mL

Question: And the Anti-bacterial activity (MIC), strain MSSE 15-6 ([9]; clinical isolate MSSE 15-6)?
Answer: 0.5 µg/mL

Question: And the inhibition at 30 µM [10]?
Answer: 20%
